Laboratory results: ChEMBL document CHEMBL1201862, “PubChem BioAssay data set” (2004)
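Dose response: 5 concentrations. Exposure: 48 h. Format: 96-well plates. Endpoint: linear interpolation; highest concentration if not reached. Here, GI50 denotes the concentration required for 50% inhibition of growth.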 Calls of active or inactive are those of the source. Cut-off read from the data, not from the text of the source: active = GI50 up to about 1.1 µM and inactive = higher.

How the values were obtained:
Assay in all cases: growth of human tumour cells (NCI), 48 h
[1] = test system: HOP-92
[2] = test system: SK-MEL-28
[3] = test system: EKVX
[4] = test system: K562
[5] = test system: HCT-15
[6] = test system: UO-31
[7] = test system: HCC 2998
[8] = test system: SK-MEL-2
[9] = test system: UACC-257
[10] = test system: RXF 393
[11] = test system: UACC-62
[12] = test system: MOLT-4
[13] = test system: COLO 205
[14] = test system: CAKI-1
[15] = test system: NCI-H23
[16] = test system: SF-268
[17] = test system: NCI-H522
[18] = test system: SNB-75
[19] = test system: M14
[20] = test system: ACHN

Cc1c2ccncc2c(C)c2c1[nH]c1ccc(OCCN(C)C)cc12
GI50 [1]: 0.583 µM (active)
GI50 [2]: 0.577 µM (active)
GI50 [3]: 0.526 µM (active)
GI50 [4]: 0.0614 µM (active)
GI50 [5]: 0.123 µM
GI50 [6]: 0.641 µM (active)
GI50 [7]: 0.22 µM (active)
GI50 [8]: 0.658 µM (active)
GI50 [9]: 0.92 µM (active)
GI50 [10]: 0.265 µM (active)
GI50 [11]: 0.729 µM (active)
GI50 [12]: 0.0193 µM (active)
GI50 [13]: 0.357 µM (active)
GI50 [14]: 0.463 µM (active)
GI50 [15]: 0.416 µM (active)
GI50 [16]: 0.151 µM (active)
GI50 [17]: 0.391 µM (active)
GI50 [18]: 0.47 µM (active)

COc1cc(C(=O)CC2OC(=O)C(Cl)=C2Cl)ccc1Cl (stereo unspecified)
GI50 [1]: > 100 µM (inactive)
GI50 [2]: > 100 µM (inactive)
GI50 [3]: > 100 µM (inactive)
GI50 [4]: > 100 µM (inactive)
GI50 [5]: > 100 µM
GI50 [6]: > 100 µM (inactive)
GI50 [7]: > 100 µM (inactive)
GI50 [8]: > 100 µM (inactive)
GI50 [19]: > 100 µM (inactive)
GI50 [9]: > 100 µM (inactive)
GI50 [10]: > 100 µM (inactive)
GI50 [11]: > 100 µM (inactive)
GI50 [12]: > 100 µM (inactive)
GI50 [13]: > 100 µM (inactive)
GI50 [14]: > 100 µM (inactive)
GI50 [15]: > 100 µM (inactive)
GI50 [20]: > 100 µM (inactive)
GI50 [16]: > 100 µM (inactive)
GI50 [17]: > 100 µM (inactive)
GI50 [18]: > 100 µM (inactive)

CC(Cc1ccccc1)NC1=NCCO1 (stereo unspecified)
GI50 [1]: 26.9 µM (inactive)
GI50 [3]: 54 µM (inactive)
GI50 [5]: 96.4 µM
GI50 [6]: 23.6 µM (inactive)
GI50 [7]: 27.6 µM (inactive)
GI50 [8]: 39.6 µM (inactive)
GI50 [10]: 52.5 µM (inactive)
GI50 [11]: 52.4 µM (inactive)
GI50 [12]: 47 µM (inactive)
GI50 [13]: 17.5 µM (inactive)
GI50 [14]: > 100 µM (inactive)
GI50 [15]: 24.9 µM (inactive)
GI50 [20]: 46 µM (inactive)
GI50 [17]: 59.6 µM (inactive)
GI50 [18]: 43.3 µM (inactive)

N#CC1(C#N)C(c2ccccc2)NC23CCCCC2C1(C#N)C(=O)N3 (stereo unspecified)
GI50 [1]: > 100 µM (inactive)
GI50 [2]: > 100 µM (inactive)
GI50 [3]: > 100 µM (inactive)
GI50 [4]: > 100 µM (inactive)
GI50 [5]: > 100 µM
GI50 [6]: > 100 µM (inactive)
GI50 [7]: > 100 µM (inactive)
GI50 [8]: > 100 µM (inactive)
GI50 [19]: > 100 µM (inactive)
GI50 [9]: > 100 µM (inactive)
GI50 [10]: > 100 µM (inactive)
GI50 [11]: > 100 µM (inactive)
GI50 [12]: > 100 µM (inactive)
GI50 [13]: > 100 µM (inactive)
GI50 [14]: > 100 µM (inactive)
GI50 [15]: > 100 µM (inactive)
GI50 [20]: > 100 µM (inactive)
GI50 [16]: > 100 µM (inactive)
GI50 [17]: > 100 µM (inactive)
GI50 [18]: > 100 µM (inactive)

CN(N=O)c1nc2c(C(N)=O)ncn2s1
GI50 [1]: 32.7 µM (inactive)
GI50 [2]: > 100 µM (inactive)
GI50 [3]: > 100 µM (inactive)
GI50 [4]: 48.4 µM (inactive)
GI50 [5]: > 100 µM
GI50 [6]: 22.2 µM (inactive)
GI50 [7]: 45.6 µM (inactive)
GI50 [8]: 35.8 µM (inactive)
GI50 [19]: 15.7 µM (inactive)
GI50 [9]: 94.6 µM (inactive)
GI50 [10]: > 100 µM (inactive)
GI50 [11]: 32.7 µM (inactive)
GI50 [12]: > 100 µM (inactive)
GI50 [13]: > 100 µM (inactive)
GI50 [14]: 28.1 µM (inactive)
GI50 [15]: > 100 µM (inactive)
GI50 [20]: 57.3 µM (inactive)
GI50 [16]: 55.5 µM (inactive)
GI50 [17]: 76.4 µM (inactive)
GI50 [18]: 49 µM (inactive)

COC1(O)c2cccc(Cl)c2C(=O)N1C1(C(N)=O)CCCCC1 (stereo unspecified)
GI50 [1]: 24.4 µM (inactive)
GI50 [2]: > 100 µM (inactive)
GI50 [3]: > 100 µM (inactive)
GI50 [4]: > 100 µM (inactive)
GI50 [5]: > 100 µM
GI50 [6]: > 100 µM (inactive)
GI50 [7]: > 100 µM (inactive)
GI50 [8]: > 100 µM (inactive)
GI50 [9]: > 100 µM (inactive)
GI50 [10]: > 100 µM (inactive)
GI50 [11]: > 100 µM (inactive)
GI50 [12]: > 100 µM (inactive)
GI50 [13]: > 100 µM (inactive)
GI50 [14]: > 100 µM (inactive)
GI50 [15]: > 37.5 µM (inactive)
GI50 [16]: > 100 µM (inactive)
GI50 [17]: > 100 µM (inactive)
GI50 [18]: > 100 µM (inactive)
